Test results reported in ChEMBL document CHEMBL4270599, “Synthesis of a 3'-C-ethynyl-β-d-ribofuranose purine nucleoside library: Discovery of C7-deazapurine analogs as potent antiproliferative nucleosides” (Eur J Med Chem, 2018).

Experiments:
Type in all cases: functional
SN12C [1] = experiment: Cytotoxicity against human SN12C cells after 48 hrs by SRB assay; settings: for GI50: read-out: GI50; for CC50: read-out: LC50 (the source's name)
HOP-62 [2] = experiment: Growth inhibition of human HOP62 cells assessed as cell growth at 10^-6 M incubated for 48 hrs by sulforhodamine B assay relative to control; settings: HOP-62, 48 h, read-out: Activity
SW-620 = experiment: Cytotoxicity against human SW620 cells after 48 hrs by SRB assay; settings: SW-620, 48 h; for GI50: read-out: GI50
NCI-H226 = experiment: Growth inhibition of human NCI-H226 cells assessed as cell growth at 10^-8 M incubated for 48 hrs by sulforhodamine B assay relative to control; settings: NCI-H226, 48 h, read-out: Activity
HOP-62 [3] = experiment: Growth inhibition of human HOP62 cells assessed as cell growth at 10^-7 M incubated for 48 hrs by sulforhodamine B assay relative to control; settings: HOP-62, 48 h, read-out: Activity
Hs-578T [4] = experiment: Growth inhibition of human Hs 578T cells assessed as cell growth at 10^-8 M incubated for 48 hrs by sulforhodamine B assay relative to control; settings: read-out: Activity
DU-145 [5] = experiment: Growth inhibition of human DU145 cells assessed as cell growth at 10^-8 M incubated for 48 hrs by sulforhodamine B assay relative to control; settings: DU-145, 48 h, read-out: Activity
KM12 = experiment: Growth inhibition of human KM12 cells assessed as cell growth at 10^-6 M incubated for 48 hrs by sulforhodamine B assay relative to control; settings: KM12, 48 h, read-out: Activity
OVCAR-4 = experiment: Growth inhibition of human OVCAR4 cells assessed as cell growth at 10^-7 M incubated for 48 hrs by sulforhodamine B assay relative to control; settings: OVCAR-4, 48 h, read-out: Activity
T47D = experiment: Cytotoxicity against human T47D cells after 48 hrs by SRB assay; settings: for GI50: read-out: GI50
M14 [6] = experiment: Growth inhibition of human M14 cells assessed as cell growth at 10^-7 M incubated for 48 hrs by sulforhodamine B assay relative to control; settings: M14, 48 h, read-out: Activity
BT-549 = experiment: Cytotoxicity against human BT549 cells after 48 hrs by SRB assay; settings: BT-549, 48 h; for GI50: read-out: GI50; for TGI: read-out: TGI
A498 = experiment: Cytotoxicity against human A498 cells after 48 hrs by SRB assay; settings: A498, 48 h; for GI50: read-out: GI50; for CC50: read-out: LC50 (the source's name); for TGI: read-out: TGI
NCI-H460 = experiment: Growth inhibition of human NCI-H460 cells assessed as cell growth at 10^-7 M incubated for 48 hrs by sulforhodamine B assay relative to control; settings: NCI-H460, 48 h, read-out: Activity
HCT-15 = experiment: Growth inhibition of human HCT15 cells assessed as cell growth at 10^-5 M incubated for 48 hrs by sulforhodamine B assay relative to control; settings: HCT-15, 48 h, read-out: Activity
OVCAR-5 = experiment: Growth inhibition of human OVCAR5 cells assessed as cell growth at 10^-5 M incubated for 48 hrs by sulforhodamine B assay relative to control; settings: OVCAR-5, 48 h, read-out: Activity
K562 = experiment: Growth inhibition of human K562 cells assessed as cell growth at 10^-4 M incubated for 48 hrs by sulforhodamine B assay relative to control; settings: K562, 48 h, read-out: Activity
UACC-62 = experiment: Growth inhibition of human UACC62 cells assessed as cell growth at 10^-8 M incubated for 48 hrs by sulforhodamine B assay relative to control; settings: UACC-62, 48 h, read-out: Activity
786-0 = experiment: Cytotoxicity against human 786-0 cells after 48 hrs by SRB assay; settings: 786-0, 48 h; for GI50: read-out: GI50; for TGI: read-out: TGI
ACHN = experiment: Growth inhibition of human ACHN cells assessed as cell growth at 10^-5 M incubated for 48 hrs by sulforhodamine B assay relative to control; settings: read-out: Activity
DU-145 [7] = experiment: Growth inhibition of human DU145 cells assessed as cell growth at 10^-5 M incubated for 48 hrs by sulforhodamine B assay relative to control; settings: DU-145, 48 h, read-out: Activity
Hs-578T [8] = experiment: Growth inhibition of human Hs 578T cells assessed as cell growth at 10^-6 M incubated for 48 hrs by sulforhodamine B assay relative to control; settings: read-out: Activity
MOLT-4 = experiment: Cytotoxicity against human MOLT4 cells after 48 hrs by SRB assay; settings: MOLT-4, 48 h; for GI50: read-out: GI50; for CC50: read-out: LC50 (the source's name); for TGI: read-out: TGI
M14 [9] = experiment: Cytotoxicity against human M14 cells after 48 hrs by SRB assay; settings: M14, 48 h; for GI50: read-out: GI50; for CC50: read-out: LC50 (the source's name); for TGI: read-out: TGI
SNB-75 = experiment: Growth inhibition of human SNB75 cells assessed as cell growth at 10^-8 M incubated for 48 hrs by sulforhodamine B assay relative to control; settings: SNB-75, 48 h, read-out: Activity
MDA-MB-435 = experiment: Growth inhibition of human MDA-MB-435 cells assessed as cell growth at 10^-5 M incubated for 48 hrs by sulforhodamine B assay relative to control; settings: MDA-MB-435, 48 h, read-out: Activity
NCI-H522 = experiment: Growth inhibition of human NCI-H522 cells assessed as cell growth at 10^-7 M incubated for 48 hrs by sulforhodamine B assay relative to control; settings: NCI-H522, 48 h, read-out: Activity
HT-29 = experiment: Growth inhibition of human HT-29 cells assessed as cell growth at 10^-8 M incubated for 48 hrs by sulforhodamine B assay relative to control; settings: HT-29, 48 h, read-out: Activity
IGROV-1 = experiment: Growth inhibition of human IGROV1 cells assessed as cell growth at 10^-7 M incubated for 48 hrs by sulforhodamine B assay relative to control; settings: IGROV-1, 48 h, read-out: Activity
NCI-H322M = experiment: Cytotoxicity against human NCI-H322M cells after 48 hrs by SRB assay; settings: for GI50: read-out: GI50; for TGI: read-out: TGI; for CC50: read-out: pLC50 (the source's name) (converted)
SN12C [10] = experiment: Growth inhibition of human SN12C cells assessed as cell growth at 10^-5 M incubated for 48 hrs by sulforhodamine B assay relative to control; settings: read-out: Activity
[11] = read-out: pLC50 (the source's name) (converted)
[12] = read-out: LC50 (the source's name)

C#C[C@@]1(O)[C@@H](CO)O[C@@H](n2cc(Cl)c3c(N)ncnc32)[C@@H]1O
GI50 (SN12C [1]): 113 to 230 nM
CC50 (SN12C [1]): > 100000 nM
growth at 1 µM (HOP-62 [2]): 2 to 10%
GI50 (SW-620): 51.3 to 98 nM
TGI (SW-620; read-out: TGI): > 100000 nM
CC50 (SW-620; [11]): > 100000 nM
growth at 0.01 µM (NCI-H226): 99 to 108%
growth at 0.1 µM (HOP-62 [3]): 74 to 86%
growth at 0.01 µM (Hs-578T [4]): 95 to 96%
growth at 0.01 µM (DU-145 [5]): 96 to 100%
growth at 1 µM (KM12): 3 to 12%
growth at 0.1 µM (OVCAR-4): 89 to 95%
GI50 (T47D): 33.6 to 98 nM
CC50 (T47D; [12]): > 100000 nM
TGI (T47D; read-out: TGI): 428 to 559 nM
growth at 0.1 µM (M14 [6]): 69 to 79%
GI50 (BT-549): 223 to 228 nM
TGI (BT-549): 640 to 685 nM
GI50 (A498): 225 to 334 nM
CC50 (A498): 842 to 5620 nM
TGI (A498): 435 to 1000 nM
growth at 0.1 µM (NCI-H460): 13 to 27%
growth at 10 µM (HCT-15): 1%
growth at 10 µM (OVCAR-5): 13 to 14%
growth at 100 µM (K562): 7 to 8%
growth at 0.01 µM (UACC-62): 94 to 97%
GI50 (786-0): 308 to 336 nM
LC50 (lethal concentration, 50% cell kill) (786-0; read-out: LC50): 5210 to 5700 nM
TGI (786-0): 1310 to 1340 nM
growth at 10 µM (ACHN): -30%
growth at 10 µM (DU-145 [7]): 1 to 2%
growth at 1 µM (Hs-578T [8]): 25 to 77%
GI50 (MOLT-4): 161 to 181 nM
CC50 (MOLT-4): > 100000 nM
TGI (MOLT-4): 6970 to 100000 nM
GI50 (M14 [9]): 157 to 200 nM
CC50 (M14 [9]): > 100000 nM
TGI (M14 [9]): 520 to 659 nM
growth at 0.01 µM (SNB-75): 84%
growth at 10 µM (MDA-MB-435): -65%
growth at 0.1 µM (NCI-H522): 47 to 62%
growth at 0.01 µM (HT-29): 83 to 92%
growth at 0.1 µM (IGROV-1): 57 to 65%
GI50 (NCI-H322M): 206 to 334 nM
TGI (NCI-H322M): 2120 to 4630 nM
CC50 (NCI-H322M): > 100000 nM

C#C[C@@]1(O)[C@@H](CO)O[C@@H](n2cc(Br)c3c(N)ncnc32)[C@@H]1O
GI50 (SN12C [1]): 37.7 to 218 nM
CC50 (SN12C [1]): > 100000 nM
TGI (SN12C [1]; read-out: TGI): > 100000 nM
TGI (SN12C [1]; read-out: pTGI (converted)): > 100000 nM
growth at 1 µM (HOP-62 [2]): 12 to 29%
GI50 (SW-620): 31.2 to 76 nM
CC50 (SW-620; [12]): > 100000 nM
TGI (SW-620; read-out: TGI): > 100000 nM
TGI (SW-620; read-out: pTGI (converted)): > 100000 nM
growth at 0.01 µM (NCI-H226): 96 to 98%
growth at 0.1 µM (HOP-62 [3]): 68 to 86%
growth at 0.01 µM (Hs-578T [4]): 90 to 96%
growth at 0.01 µM (DU-145 [5]): 98 to 100%
growth at 1 µM (KM12): 21 to 26%
growth at 0.1 µM (OVCAR-4): 78 to 89%
GI50 (T47D): 17.3 to 43.2 nM
TGI (T47D; read-out: TGI): 177 nM
CC50 (T47D; [11]): > 100000 nM
TGI (T47D; read-out: pTGI (converted)): 178 nM
growth at 0.1 µM (M14 [6]): 56 to 81%
GI50 (BT-549): 147 to 234 nM
CC50 (BT-549; [12]): > 100000 nM
TGI (BT-549): 536 to 819 nM
GI50 (A498): 185 to 280 nM
CC50 (A498): 940 to 4210 nM
TGI (A498): 417 to 828 nM
growth at 0.1 µM (NCI-H460): 9 to 27%
growth at 10 µM (SN12C [10]): 1 to 3%
growth at 10 µM (HCT-15): 3%
growth at 10 µM (OVCAR-5): 11 to 12%
growth at 100 µM (K562): 7%
growth at 0.01 µM (UACC-62): 93 to 101%
GI50 (786-0): 164 to 351 nM
TGI (786-0): 593 to 1630 nM
growth at 10 µM (ACHN): -7%
growth at 10 µM (DU-145 [7]): 7 to 10%
growth at 1 µM (Hs-578T [8]): 6 to 57%
GI50 (MOLT-4): 70.8 to 178 nM
CC50 (MOLT-4): > 100000 nM
TGI (MOLT-4): 778 to 100000 nM
GI50 (M14 [9]): 145 to 353 nM
CC50 (M14 [9]): 75300 to 100000 nM
TGI (M14 [9]): 12900 to 14200 nM
growth at 0.01 µM (SNB-75): 73 to 89%
growth at 0.1 µM (NCI-H522): 38 to 67%
growth at 0.01 µM (HT-29): 78 to 94%
growth at 0.1 µM (IGROV-1): 11 to 43%
GI50 (NCI-H322M): 326 to 372 nM
TGI (NCI-H322M): 4740 to 5410 nM
CC50 (NCI-H322M): > 100000 nM
